Experimental data reported in patent US20240132461A1, “FLAVONE DEAZA SPERMIDINE ANALOGUES AND THEIR USE TREATING CANCER” (FLORATEK PHARMA S.A., priority 2021, published 2024).
Counter-ions that a name gives are not always drawn.

Key:
[1] = system: MIA-Pa-Ca-2; assay: Cell viability assay, pancreatic carcinoma cell line MIA-Pa-Ca-2; type: cell-based; details: Homo sapiens, MIA PaCa-2; MIA-Pa-Ca-2 pancreatic carcinoma cell line
Protocol: (§1) Antitumor activity of the compounds and doxorubicin as a positive control was assessed by using the CellTiter-Blue Cell Viability Assay (Promega, #G8082) or CellTiter-Glow® Luminescent Cell Viability assay (Promega # G7572) according to the manufacturer's instructions. The compounds were tested at 5 or 6 concentrations in half-log increments (highest concentration 30 μM-100 μM) in duplicate or triplicate well conditions.
(§2) Tumor cells were grown at 37° C. in a humidified atmosphere with 5% CO2 in RPMI 1640 or DMEM medium, supplemented with 10% (v/v) fetal calf serum and 50 μg/ml gentamicin for up to 20 passages, and were passaged once or twice weekly. Cells were harvested using TrypLE or PBS buffer containing 1 mM EDTA, and the percentage of viable cells is determined using a CASY Model TT cell counter (OMNI Life Science). Cells were harvested from exponential phase cultures, counted and plated in 96 well flat-bottom microtiter plates at a cell density depending on the cell line's growth rate (4,000-20,000 cells/well depending on the cell line's growth rate, up to 60,000 for hematological cancer cell lines) in RPMI 1640 or DMEM medium supplemented with 10% (v/v) fetal calf serum and 50 μg/ml gentamicin (140 μl/well). Cultures were incubated at 37° C. and 5% CO2 in a humidified atmosphere. After 24 h, 10 μl of test compounds or control medium are added, and left on the cells for another 72 h. Compounds were serially diluted in DMSO, transferred in cell culture medium, and added to the assay plates. The DMSO concentration was kept constant at <0.3% v/v across the assay plate. Viability of cells was quantified by the CellTiter-Blue® cell viability assay (Promega G8081) or CellTiter-Glow® Luminescent Cell Viability assay (Promega # G7572). Fluorescence (FU) was measured by using the EnSpire® multimode plate reader (Perkin Elmer) (excitation λ=570 nm, emission λ=600 nm) or luminescent detection of ATP in viable cells was used as parameter for proliferation. Luminescence was measured with the microplate luminometer (Promega or Perkin Elmer).
(§3) Sigmoidal concentration-response curves were fitted to the data points (test-versus-control, T/C values) obtained for each tumor model using 4 parameter non-linear curve fit (Charles River DRS Datawarehouse Software) or with GraphPad prism 5.02 software. IC50 values are reported as absolute IC50 values, being the concentration of test compound at the intersection of the concentration-response curves with T/C=50%

[2] = system: Panc-1; assay: Cell viability assay, pancreatic carcinoma cell line Panc-1; type: cell-based; details: Homo sapiens; Panc-1 pancreatic carcinoma cell line
Protocol: as §1, §2, §3

[3] = system: pancreatic carcinoma cell; assay: Cell viability assay, pancreatic carcinoma cell lines (summary); type: cell-based; details: summary of Table 12; read-out: IC50s, pancreatic carcinoma cell growth
Protocol: as §1, §2, §3

[4] = system: HL-60; assay: Cell viability assay, acute promyelocytic leukemia cell line HL-60; type: cell-based; details: Homo sapiens; HL-60 acute promyelocytic leukemia cell line
Protocol: as §1, §2, §3

[5] = system: lung carcinoma cell; assay: Cell viability assay, lung carcinoma cell lines (summary); type: cell-based; details: summary of Tables 7A-E; read-out: IC50s, lung carcinoma cell growth
Protocol: as §1, §2, §3

[6] = In vivo maximum tolerated dose in NOG mice; details: for tolerability at the highest dose administered: 8-10 mg/kg i.p., daily or every other day over 8 days; for MTD at 8 days: mouse, in vivo, ip, repeated i.p. administration, MTD not reached, read-out: maximum tolerated dose (MTD), estimated
Protocol: In order to evaluate the general toxicity of selected SND compounds in an animal model, a maximum tolerated dose (MTD) in NOG mice has been undertaken. Three mice per group were treated daily or every other day over 8 days at various doses between 5 mg/kg and 10 mg/kg. Administration of the compounds was i.p. A stock solution of the compounds (40 mg/ml in DMSO) was prepared and frozen at −20° C. in aliquots for each treatment. […] Body weights were measured before each treatment. Mice were further observed for 1 week after the last treatment.

[7] = system: CALU-6; assay: Cell viability assay, non-small cell lung carcinoma cell line CALU-6; type: cell-based; details: Homo sapiens; CALU-6 non-small cell lung carcinoma cell line
Protocol: as §1, §2, §3

[8] = system: NCI-H1299; assay: Cell viability assay, non-small cell lung carcinoma cell line NCI-H1299; type: cell-based; details: Homo sapiens
Protocol: as §1, §2, §3

[9] = system: H69AR; assay: Cell viability assay, resistant small cell lung carcinoma cell line H69AR; type: cell-based; details: H69AR multiple drug resistant small cell lung carcinoma cell line
Protocol: as §1, §2, §3
The multiple drug resistant cell line H69AR obtained from ATCC, was established from NCI-H69 cells that were grown in the presence of increasing concentrations of adriamycin (doxorubicin). The H69AR cell line is approximately 50-fold resistant to adriamycin as compared to the parental NCI-H69 cell line. SND141, SND142, SND143, SND146, SND147 and SND148 inhibited the resistant cell line H69AR with IC50s below 5 μM, as presented in Table 8.

[10] = system: SC6; assay: PDX cytotoxicity assay, small cell lung carcinoma PDX SC6; type: cell-based
Protocol: PDX-derived cell cultures were obtained from tumors explanted from mice and isolated by mechanical and enzymatic dissociation. […] Cells were harvested and seeded in 96-wells plates at a density of 1.25 to 5×10^3 cells/well for cytotoxicity assays. Cells were incubated 48 h at 37° C. prior to addition of test molecules and vehicle (DMSO, 0.1%) at desired final concentrations. Cell viability was assessed before drugs' addition (T0) and 5 days after test molecules addition by measuring ATP cell content using CellTiter-Glo® Luminescent Cell Viability Assay (Promega) according to the manufacturer's instructions. Luciferase activity was measured on a luminometer (PerkinElmer® EnVision™). Each concentration of compounds was tested in triplicate.
Viability was calculated as a percentage of ATP value compared to vehicle treated controls.
For PDX primary cell cultures, the tumour tissue was washed with PBS containing antibiotic-antimycotic and non-tumour tissue and necrotic tumour tissues were separated. The tumour tissue was transferred to a new dish and cut into 1˜2 mm^3 fragments, resuspended in RPMI-1640 medium and centrifuged at 1,200 rpm for 6 min at room temperature. The pelleted material was resuspended with 15 mL of Tumour Cell Digestion Solution and incubated at 37° C. for 1 hour with agitation. […]

For `COc1c(O)ccc2c(=O)cc(-c3ccc(CCCCN(C)C)cc3)oc12` [SND141, 2-(4-(4-(dimethylamino)butyl)phenyl)-7-hydroxy-8-methoxy-4H-chromen-4-one], the IC50 [1] was 2.3 µM, the IC50 [2] was 3.91 µM and the IC50 [3] was under 10 µM.

Work on `COc1c(O)ccc2c(=O)cc(-c3ccc(CCCCN4CCN(C)CC4)cc3)oc12` [SND142, 7-Hydroxy-8-methoxy-2-(4-(4-(4-methylpiperazin-1-yl)butyl)phenyl)-4H-chromen-4-one] yielded an IC50 [1] of 1 µM, an IC50 [4] of 3.48 µM and an IC50 [5] of under 20 µM. The “tolerability at the highest dose administered” value [6] was “well tolerated”, the MTD at 8 days [6] was over 10 mg/kg and the IC50 [2] was 1.6 µM. For the same molecule, the IC50 [7] was 1.7 µM, the IC50 [8] was 1 µM and the IC50 [3] was under 10 µM.

`COc1c(O)ccc2c(=O)cc(-c3ccc(CCCCN4CCOCC4)cc3)oc12` [SND147, 7-hydroxy-8-methoxy-2-(4-(4-morpholinobutyl)phenyl)-4H-chromen-4-one] gave an IC50 [9] of 2.6 µM, an IC50 ([9]; Homo sapiens, H69AR) of under 5 µM and an IC50 [1] of 2.02 µM. For the same molecule, the IC50 [5] was under 20 µM, the “tolerability at the highest dose administered” value [6] was “well tolerated” and the MTD at 8 days [6] was over 10 mg/kg. For the same molecule, the IC50 [2] was 3.8 µM, the IC50 [7] was 12.2 µM and the IC50 [3] was under 10 µM.

With `COc1c(O)ccc2c(=O)cc(-c3ccc(CN4CCCC4)cc3)oc12` [SND163] the IC50 [8] was 5.8 µM.

`COc1c(O)ccc2c(=O)cc(-c3ccc(CN(C)CCN4CCCCC4)cc3)oc12` [SND167] showed an IC50 [5] of under 20 µM and an IC50 [8] of 2.7 µM.

`COc1c(O)ccc2c(=O)cc(-c3ccc(CN4CCCCC4)cc3)oc12` [SND168] gave an IC50 [5] of under 20 µM and an IC50 [8] of 3.7 µM.

Molecule `CN(CCCc1ccc(-c2cc(=O)c3ccc(O)c(O)c3o2)cc1)CCN1CCCCC1` [SND171, 7,8-Dihydroxy-2-(4-(3-(methyl(2-(piperidin-1-yl)ethyl)amino)propyl)phenyl)-4H-chromen-4-one dihydrochloride] has an IC50 [10] of 15 µM.
